Broadly, the IC50 is the concentration that inhibits the measured activity by half.

The target of the test is JAK1 (Homo sapiens (Human), UniProt P23458). The test can be described thus: Analysis of JAK1 activity inhibition ability (ADP-Glo Kinase Assay). The class given is biochemical. The following applies: JAK1 enzyme, ADP-Glo luminescence, ATP 250 uM, IRS-itide substrate, 30° C. 40 minutes; read-out: IC50. The procedure, abridged: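 JAK1 enzyme, IRS-itide substrate (40 ng/mL) and 250 uM ATP, both as prepared in kinase buffer (Tris-HCl pH 7.5, MgCl2, BSA, DTT), reacted with compound 40 min at 30 °C. ADP formed was detected by ADP-Glo luminescence; IC50 is the concentration giving 50% inhibition versus control.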
(ADP-Glo turns the ADP formed in a reaction into a luminescent signal.)

JAK1, sequence (P23458 whole entry): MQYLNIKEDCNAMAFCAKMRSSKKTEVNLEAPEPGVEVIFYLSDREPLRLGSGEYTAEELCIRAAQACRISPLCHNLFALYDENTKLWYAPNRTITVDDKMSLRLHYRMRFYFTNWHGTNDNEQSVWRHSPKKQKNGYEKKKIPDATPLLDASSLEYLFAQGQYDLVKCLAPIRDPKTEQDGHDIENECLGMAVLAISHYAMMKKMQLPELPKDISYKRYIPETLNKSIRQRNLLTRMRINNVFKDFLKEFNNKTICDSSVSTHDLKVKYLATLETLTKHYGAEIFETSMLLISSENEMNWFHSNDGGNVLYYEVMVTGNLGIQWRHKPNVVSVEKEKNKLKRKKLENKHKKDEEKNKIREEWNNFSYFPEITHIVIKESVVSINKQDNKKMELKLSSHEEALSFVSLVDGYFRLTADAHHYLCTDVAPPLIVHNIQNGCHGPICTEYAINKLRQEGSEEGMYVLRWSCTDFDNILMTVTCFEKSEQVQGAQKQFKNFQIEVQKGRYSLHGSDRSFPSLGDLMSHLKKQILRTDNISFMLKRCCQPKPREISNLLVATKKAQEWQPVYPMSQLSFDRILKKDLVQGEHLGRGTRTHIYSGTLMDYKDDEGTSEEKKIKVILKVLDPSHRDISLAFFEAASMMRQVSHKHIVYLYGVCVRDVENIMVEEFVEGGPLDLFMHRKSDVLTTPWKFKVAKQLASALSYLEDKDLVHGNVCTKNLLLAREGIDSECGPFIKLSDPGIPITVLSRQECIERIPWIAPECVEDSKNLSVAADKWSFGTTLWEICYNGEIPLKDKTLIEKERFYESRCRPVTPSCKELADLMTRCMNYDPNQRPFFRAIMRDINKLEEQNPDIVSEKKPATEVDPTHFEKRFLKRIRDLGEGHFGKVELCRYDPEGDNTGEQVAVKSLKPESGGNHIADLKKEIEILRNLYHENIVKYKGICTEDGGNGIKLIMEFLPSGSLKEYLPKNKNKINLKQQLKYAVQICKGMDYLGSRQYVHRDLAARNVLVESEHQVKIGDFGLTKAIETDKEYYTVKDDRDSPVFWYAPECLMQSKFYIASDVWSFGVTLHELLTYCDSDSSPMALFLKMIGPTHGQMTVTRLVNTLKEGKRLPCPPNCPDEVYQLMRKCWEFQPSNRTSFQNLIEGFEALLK

For `CC1CN(C(=O)c2ccc(Cl)c(Cl)c2)CC=C1c1cc(NC(=O)C2CC2)nc2[nH]ccc12` (centres unmarked) [Example 353, N-(4-(1-(3,4-dichlorobenzoyl)-3-methyl-1,2,3,6-tetrahydropyridin-4-yl)-1H-pyrrolo[2,3-b]pyridin-6-yl)cyclopropanecarboxamide], the IC50 lay within 20 to 200 nM.

Consider `CC1CN(C(=O)c2ccc(S(C)(=O)=O)cc2)CC=C1c1cc(NC(=O)C2CC2)nc2[nH]ccc12` (centres unmarked) [Example 354, N-(4-(3-methyl-1-(4-(methylsulfonyl)benzoyl)-1,2,3,6-tetrahydropyridin-4-yl)-1H-pyrrolo[2,3-b]pyridin-6-yl)cyclopropanecarboxamide], for which the IC50 fell in the range of 20 to 200 nM.

Consider `CC1CN(C(=O)c2ccc(F)cc2Cl)CC=C1c1cc(NC(=O)C2CC2)nc2[nH]ccc12` (centres unmarked) [Example 355, N-(4-(1-(2-chloro-4-fluorobenzoyl)-3-methyl-1,2,3,6-tetrahydropyridin-4-yl)-1H-pyrrolo[2,3-b]pyridin-6-yl)cyclopropanecarboxamide], for which the IC50 was 20 to 200 nM.

Regarding `COc1ccc(C(=O)N2CC=C(c3cc(NC(=O)C4CC4)nc4[nH]ccc34)C(C)C2)c(OC)c1` (centres unmarked) [Example 356, N-(4-(1-(2,4-dimethoxybenzoyl)-3-methyl-1,2,3,6-tetrahydropyridin-4-yl)-1H-pyrrolo[2,3-b]pyridin-6-yl)cyclopropanecarboxamide], the IC50 was greater than 200 nM.

On to `CSc1ccccc1C(=O)N1CC=C(c2cc(NC(=O)C3CC3)nc3[nH]ccc23)C(C)C1` (centres unmarked) [Example 357, N-(4-(3-methyl-1-(2-(methylthio)benzoyl)-1,2,3,6-tetrahydropyridin-4-yl)-1H-pyrrolo[2,3-b]pyridin-6-yl)cyclopropanecarboxamide], for which the IC50 was in the range of 20 to 200 nM.

Consider `CC1CN(C(=O)c2cc(F)cc(F)c2)CC=C1c1cc(NC(=O)C2CC2)nc2[nH]ccc12` (centres unmarked) [Example 358, N-(4-(1-(3,5-difluorobenzoyl)-3-methyl-1,2,3,6-tetrahydropyridin-4-yl)-1H-pyrrolo[2,3-b]pyridin-6-yl)cyclopropanecarboxamide], for which the IC50 lay within 20 to 200 nM.

Consider `CC1CN(C(=O)C(C#N)Cc2ccc(F)cc2)CC=C1c1cc(NC(=O)C2CC2)nc2[nH]ccc12` (centres unmarked) [Example 359, N-(4-(1-(2-cyano-3-(4-fluorophenyl)propanoyl)-3-methyl-1,2,3,6-tetrahydropyridin-4-yl)-1H-pyrrolo[2,3-b]pyridin-6-yl)cyclopropanecarboxamide], for which the concentration for half-maximal inhibition (IC50) is 20 to 200 nM.

For the molecule `CC1CN(C(=O)C(C#N)Cc2ccccc2)CC=C1c1cc(NC(=O)C2CC2)nc2[nH]ccc12` (centres unmarked) [Example 360, N-(4-(1-(2-cyano-3-phenylpropanoyl)-3-methyl-1,2,3,6-tetrahydropyridin-4-yl)-1H-pyrrolo[2,3-b]pyridin-6-yl)cyclopropanecarboxamide], the IC50 fell in the range of 20 to 200 nM.

Regarding `CC1CN(C(=O)C2(C#N)CCCC2)CC=C1c1cc(NC(=O)C2CC2)nc2[nH]ccc12` (centres unmarked) [Example 361, N-(4-(1-(1-cyanocyclopentane-1-carbonyl)-3-methyl-1,2,3,6-tetrahydropyridin-4-yl)-1H-pyrrolo[2,3-b]pyridin-6-yl)cyclopropanecarboxamide], the IC50 fell in the range of 20 to 200 nM.

With `CC1CN(C(=O)CC(=O)N2CCOCC2)CC=C1c1cc(NC(=O)C2CC2)nc2[nH]ccc12` (centres unmarked) [Example 362, N-(4-(3-methyl-1-(3-morpholino-3-oxopropanoyl)-1,2,3,6-tetrahydropyridin-4-yl)-1H-pyrrolo[2,3-b]pyridin-6-yl)cyclopropanecarboxamide], the IC50 lay in the range of 20 to 200 nM.

For the molecule `CC1CC(c2cc(NC(=O)C3CC3)nc3[nH]ccc23)=CCN1C(=O)CC#N` (centres unmarked) [Example 363, N-(4-(1-(2-cyanoacetyl)-2-methyl-1,2,3,6-tetrahydropyridin-4-yl)-1H-pyrrolo[2,3-b]pyridin-6-yl)cyclopropanecarboxamide], the IC50 was less than 20 nM.

For `CC1CN(C(=O)Cc2ccccc2)CC=C1c1cc(NC(=O)C2CC2)nc2[nH]ccc12` (centres unmarked) [Example 365, N-(4-(3-methyl-1-(2-phenylacetyl)-1,2,3,6-tetrahydropyridin-4-yl)-1H-pyrrolo[2,3-b]pyridin-6-yl)cyclopropanecarboxamide], the half-maximal inhibitory concentration (IC50) fell in the range of 20 to 200 nM.

Regarding `O=C(Nc1cc(C2=CC3CCCC(C2)N3C(=O)c2ccnc(F)c2)c2cc[nH]c2n1)C1CC1` (centres unmarked) [Example 366, N-(4-(9-(2-fluoroisonicotinoyl)-9-azabicyclo[3.3.1]non-2-en-3-yl)-1H-pyrrolo[2,3-b]pyridin-6-yl)cyclopropanecarboxamide], the IC50 was less than 20 nM.

Consider `O=C(Nc1cc(C2=CC3CCCC(C2)N3C(=O)c2ccnc(Cl)c2)c2cc[nH]c2n1)C1CC1` (centres unmarked) [Example 367, N-(4-(9-(2-chloroisonicotinoyl)-9-azabicyclo[3.3.1]non-2-en-3-yl)-1H-pyrrolo[2,3-b]pyridin-6-yl)cyclopropanecarboxamide], for which the IC50 is 20 to 200 nM.

On to `O=C(Nc1cc(C2=CC3CCCC(C2)N3C(=O)c2ccc(Cl)nc2)c2cc[nH]c2n1)C1CC1` (centres unmarked) [Example 368, N-(4-(9-(6-chloronicotinoyl)-9-azabicyclo[3.3.1]non-2-en-3-yl)-1H-pyrrolo[2,3-b]pyridin-6-yl)cyclopropanecarboxamide], for which the IC50 is less than 20 nM.

For the molecule `O=C(Nc1cc(C2=CC3CCCC(C2)N3C(=O)c2ccncc2F)c2cc[nH]c2n1)C1CC1` (centres unmarked) [Example 369, N-(4-(9-(3-fluoroisonicotinoyl)-9-azabicyclo[3.3.1]non-2-en-3-yl)-1H-pyrrolo[2,3-b]pyridin-6-yl)cyclopropanecarboxamide], the IC50 lay in the range of 20 to 200 nM.

Regarding `O=C(Nc1cc(C2=CC3CCCC(C2)N3C(=O)c2ccc([N+](=O)[O-])cc2)c2cc[nH]c2n1)C1CC1` (centres unmarked) [Example 370, N-(4-(9-(4-nitrobenzoyl)-9-azabicyclo[3.3.1]non-2-en-3-yl)-1H-pyrrolo[2,3-b]pyridin-6-yl)cyclopropanecarboxamide], the IC50 lay within 20 to 200 nM.

For `O=C(Nc1cc(C2=CC3CCCC(C2)N3C(=O)c2cccc(Br)c2)c2cc[nH]c2n1)C1CC1` (centres unmarked) [Example 371, N-(4-(9-(3-bromobenzoyl)-9-azabicyclo[3.3.1]non-2-en-3-yl)-1H-pyrrolo[2,3-b]pyridin-6-yl)cyclopropanecarboxamide], the IC50 was in the range of 20 to 200 nM.

On to `CC1CN(C(=O)c2cc(Cl)nc(Cl)c2)CC=C1c1cc(NC(=O)C2CC2)nc2[nH]ccc12` (centres unmarked) [Example 372, N-(4-(1-(2,6-dichloroisonicotinoyl)-3-methyl-1,2,3,6-tetrahydropyridin-4-yl)-1H-pyrrolo[2,3-b]pyridin-6-yl)cyclopropanecarboxamide], for which the IC50 lay in the range of 20 to 200 nM.

As to `CC1CN(C(=O)c2c(Cl)cncc2Cl)CC=C1c1cc(NC(=O)C2CC2)nc2[nH]ccc12` (centres unmarked) [Example 374, N-(4-(1-(3,5-dichloroisonicotinoyl)-3-methyl-1,2,3,6-tetrahydropyridin-4-yl)-1H-pyrrolo[2,3-b]pyridin-6-yl)cyclopropanecarboxamide], the concentration for half-maximal inhibition (IC50) lay within 20 to 200 nM.

Turning to `Cc1cc(C(=O)N2CC=C(c3cc(NC(=O)C4CC4)nc4[nH]ccc34)C(C)C2)cc(Cl)n1` (centres unmarked) [Example 375, N-(4-(1-(2-chloro-6-methylisonicotinoyl)-3-methyl-1,2,3,6-tetrahydropyridin-4-yl)-1H-pyrrolo[2,3-b]pyridin-6-yl)cyclopropanecarboxamide], the IC50 lay within 20 to 200 nM.

With `CC1CN(C(=O)c2ccncc2Cl)CC=C1c1cc(NC(=O)C2CC2)nc2[nH]ccc12` (centres unmarked) [Example 376, N-(4-(1-(3-chloroisonicotinoyl)-3-methyl-1,2,3,6-tetrahydropyridin-4-yl)-1H-pyrrolo[2,3-b]pyridin-6-yl)cyclopropanecarboxamide], the IC50 lay in the range of 20 to 200 nM.

For the molecule `CC1CN(C(=O)c2ccncc2O)CC=C1c1cc(NC(=O)C2CC2)nc2[nH]ccc12` (centres unmarked) [Example 377, N-(4-(1-(3-hydroxyisonicotinoyl)-3-methyl-1,2,3,6-tetrahydropyridin-4-yl)-1H-pyrrolo[2,3-b]pyridin-6-yl)cyclopropanecarboxamide], the IC50 is greater than 200 nM.

As to `CC1CN(C(=O)c2cccc(F)c2F)CC=C1c1cc(NC(=O)C2CC2)nc2[nH]ccc12` (centres unmarked) [Example 378, N-(4-(1-(2,3-difluorobenzoyl)-3-methyl-1,2,3,6-tetrahydropyridin-4-yl)-1H-pyrrolo[2,3-b]pyridin-6-yl)cyclopropanecarboxamide], the IC50 is less than 20 nM.

Turning to `Cc1cc(C(=O)N2CC=C(c3cc(NC(=O)C4CC4)nc4[nH]ccc34)C(C)C2)ccn1` (centres unmarked) [Example 379, N-(4-(3-methyl-1-(2-methylisonicotinoyl)-1,2,3,6-tetrahydropyridin-4-yl)-1H-pyrrolo[2,3-b]pyridin-6-yl)cyclopropanecarboxamide], the IC50 lay within 20 to 200 nM.

Take `COc1ccc(C(=O)N2CC=C(c3cc(NC(=O)C4CC4)nc4[nH]ccc34)C(C)C2)cn1` (centres unmarked) [Example 380, N-(4-(1-(6-methoxynicotinoyl)-3-methyl-1,2,3,6-tetrahydropyridin-4-yl)-1H-pyrrolo[2,3-b]pyridin-6-yl)cyclopropanecarboxamide]: the IC50 was in the range of 20 to 200 nM.

For the molecule `CC1CN(C(=O)c2ccnc(N)c2)CC=C1c1cc(NC(=O)C2CC2)nc2[nH]ccc12` (centres unmarked) [Example 381, N-(4-(1-(2-aminoisonicotinoyl)-3-methyl-1,2,3,6-tetrahydropyridin-4-yl)-1H-pyrrolo[2,3-b]pyridin-6-yl)cyclopropanecarboxamide], the IC50 was greater than 200 nM.

On to `CC1CN(C(=O)c2ccnc(Br)c2)CC=C1c1cc(NC(=O)C2CC2)nc2[nH]ccc12` (centres unmarked) [Example 382, N-(4-(1-(2-bromoisonicotinoyl)-3-methyl-1,2,3,6-tetrahydropyridin-4-yl)-1H-pyrrolo[2,3-b]pyridin-6-yl)cyclopropanecarboxamide], for which the IC50 lay within 20 to 200 nM.

As for `CC1CN(C(=O)c2ccnc(O)c2)CC=C1c1cc(NC(=O)C2CC2)nc2[nH]ccc12` (centres unmarked) [Example 383, N-(4-(1-(2-hydroxyisonicotinoyl)-3-methyl-1,2,3,6-tetrahydropyridin-4-yl)-1H-pyrrolo[2,3-b]pyridin-6-yl)cyclopropanecarboxamide], the IC50 is greater than 200 nM.

The record behind these values is patent publication US11524968B2, “Heterocyclic compound as a protein kinase inhibitor” (HK inno.N Corporation, priority 2017, dated 2022).
